Where two headings read alike, the source gives them in different places.
Tests used:
BRD3BD1 = target: T1, BRD3BD1 (Homo sapiens, UniProt Q15059); experiment: competitive FP assay, BRD3 BD1 -/+ FKBP12; assay type: binding
T1 construct: to the isolated BD1 and BD2 domains of BRD2, BRD3 and BRD4

BRD2BD1 = target: T2, BRD2BD1 (Homo sapiens, UniProt P25440); experiment: competitive FP assay, BRD2 BD1 -/+ FKBP12; assay type: binding
T2 construct: to the isolated BD1 and BD2 domains of BRD2, BRD3 and BRD4

FKBP12 [1] = target: T3, FKBP12 (Homo sapiens, UniProt P62942); experiment: competitive fluorescence polarization assay, binding to FKBP12; conditions: competitive FP assay
BRD4^BD2 = target: T4, BRD4^BD2 (Homo sapiens, UniProt O60885); experiment: competitive fluorescence polarization assay, BRD4 BD2 -/+ presenter protein; assay type: binding
T4 construct: to the isolated BD1 and BD2 domains of BRD2, BRD3 and BRD4

BRD3BD2 = target: T5, BRD3BD2 (Homo sapiens, UniProt Q15059); experiment: competitive FP assay, BRD3 BD2 -/+ FKBP12; assay type: binding
T5 construct: to the isolated BD1 and BD2 domains of BRD2, BRD3 and BRD4

BRD4 43-463 Y390A [2] = target: BRD4 43-463 Y390A (Homo sapiens, UniProt O60885, Y390A); experiment: competitive FP assay, BRD4 tandem construct Y390A; assay type: binding
BRD4 43-463 Y390A [3] = experiment: competitive FP assay, BRD4 tandem construct Y390A; assay type: binding
BRD2BD2 = BRD2BD2 (Homo sapiens, UniProt P25440); experiment: competitive FP assay, BRD2 BD2 -/+ FKBP12; assay type: binding
[4] = target: T6, His-BRD4^BD1 + eGFP-FKBP12 (Homo sapiens, UniProt O60885+P62942); experiment: HTRF ternary complex formation BRD4 BD1 + EGFP-FKBP12; assay type: binding; conditions: eGFP-FKBP12 5 µM, His-BRD4^BD1 100 nM; read-out: HTRF BRD4^BD1 + GFP-FKBP12 Kd
T6 construct: the His6-tag of the respective BD1 or BD2 domain of BRD4 and EGFP-labeled FKBP12

[5] = target: T7, His-BRD4^BD2 + eGFP-FKBP12 (Homo sapiens, UniProt O60885+P62942); experiment: HTRF ternary complex formation BRD4 BD2 + EGFP-FKBP12; assay type: binding; conditions: eGFP-FKBP12 5 µM, His-BRD4^BD2 100 nM; read-out: HTRF BRD4^BD2 + GFP-FKBP12 Kd
T7 construct: the His6-tag of the respective BD1 or BD2 domain of BRD4 and EGFP-labeled FKBP12

BRD4^BD1 = target: T8, BRD4^BD1 (Homo sapiens, UniProt O60885); experiment: competitive fluorescence polarization assay, BRD4 BD1 -/+ presenter protein; assay type: binding
T8 construct: to the isolated BD1 and BD2 domains of BRD2, BRD3 and BRD4

MV4-11 cells = experiment: CellTiter-Glo cell viability, MV4-11; assay type: cell-based, human; conditions: Homo sapiens, MV4-11, 120 h; five days, without FKBP12 PROTAC; read-out: Cell toxicity (MV4-11) - FKBP12 PROTAC IC50
BRD4 = target: T9, BRD4 (Homo sapiens, UniProt O60885); experiment: NanoBRET BRD4, transient BRD4-NanoLuc in HEK293T cells; assay type: cell-based; conditions: intact HEK293 cells
T9 construct: full-length BRD4 fused to NanoLuc at N terminus; expressed in transfected cells; host or cells: HEK293T
Method: The NanoBRET assay was performed as described previously[26],[39]. To study BRD4 engagement, we employed two models: cells stably expressing BRD4-NanoLuc and cells with transient BRD4-NanoLuc expression. For stable cell lines, the coding sequence of human BRD4 (Isoform B) was fused in-frame to NanoLuc luciferase under the control of the human ubiquitin C (UbC) promoter, with left and right homology arms targeting the AAVS1 locus in intron 1 of the PPP1R12C gene to facilitate genomic integration. PC3 prostate cancer cells were transfected with this construct and vectors expressing Cas9 and an sgRNA targeting the AAVS1 locus using Lipofectamine 3000 (Invitrogen). Successful integrands were selected with blasticidin. Expression of the fusion protein was confirmed by western blot. For transient experiments, full-length BRD4 fused to NanoLuc at N terminus, was cloned into an expression plasmid and transfected into HEK293T cells using FuGENE HD (Promega, E2312), with protein expression allowed for 20 h. Serially diluted inhibitors and BRD Tracer-02 (Promega, TracerDB ID: T000022) at the Tracer KD concentration (from TracerDB)[40] were dispensed into white 384-well plates (Greiner 781207) using an ECHO 550 acoustic dispenser (Labcyte). The cells were trypsinized, resuspended in Opti-MEM without phenol red (Life Technologies), and seeded at 2 × 10^5 cells/mL. After equilibration for 2 h at 37 °C/5% CO₂ following compound treatment, the NanoBRET® NanoGlo Substrate + Extracellular NanoLuc® Inhibitor (Promega, N2162) was added according to the manufacturer’s protocol, and filtered luminescence was measured on a PHERAstar plate reader (BMG Labtech) using a donor (450 nm BP) and acceptor (610 nm LP) filter pair. Competitive displacement data were analyzed using GraphPad Prism 9 with a normalized 3-parameter curve fit: Y = 100/(1 + 10^(X − log IC₅₀)). For BRET measurements after FKBP12 knockdown in stably expressing BRD4 Nano-Luc reporter cell line, 10 nL/per well of the FKBP12 PROTAC was pipetted to each well using Labcyte to achieve the final concentration of 200 nM and the plated cells were incubated over-night at 37 °C and 5% CO2. BRET measurements were performed as outlined above.

FKBP12 [6] = target: T3, FKBP12; experiment: NanoBRET FKBP12 in intact HEK293 cells; assay type: cell-based
BRD4 43-463 Y97A [7] = experiment: competitive FP assay, BRD4 tandem construct Y97A; assay type: binding
BRD4 43-463 Y97A [8] = target: BRD4 43-463 Y97A (Homo sapiens, UniProt O60885, Y97A); experiment: competitive FP assay, BRD4 tandem construct Y97A; assay type: binding
BRD4 43-463 = BRD4 43-463 (Homo sapiens, UniProt O60885); experiment: competitive FP assay, BRD4 tandem bromo domain construct; assay type: binding
MYC mRNA = experiment: quantitative RT-PCR of MYC mRNA, MV4-11; assay type: cell-based, human; conditions: MV4-11
[9] = ratio of binding in absence or presence of FKBP12

Sequence of BRD2BD2 (P25440 344-453 limits assumed): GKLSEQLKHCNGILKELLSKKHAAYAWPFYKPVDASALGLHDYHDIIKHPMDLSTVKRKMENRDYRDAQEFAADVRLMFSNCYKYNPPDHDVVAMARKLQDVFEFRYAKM
T1 sequence (Q15059 34-140 limits assumed): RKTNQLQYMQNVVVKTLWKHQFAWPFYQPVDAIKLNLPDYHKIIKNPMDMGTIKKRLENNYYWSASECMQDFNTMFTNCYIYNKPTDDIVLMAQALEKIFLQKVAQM
T2 sequence (P25440 74-180 limits assumed): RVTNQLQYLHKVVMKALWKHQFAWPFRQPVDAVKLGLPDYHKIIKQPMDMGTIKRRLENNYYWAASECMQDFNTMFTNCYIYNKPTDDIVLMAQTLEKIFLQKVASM
T5 sequence (Q15059 306-415 limits assumed): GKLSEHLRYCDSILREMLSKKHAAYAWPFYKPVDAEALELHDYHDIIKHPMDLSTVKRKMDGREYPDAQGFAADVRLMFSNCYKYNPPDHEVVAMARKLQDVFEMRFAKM

Cc1sc2c(c1C)C(c1ccc(Cl)cc1)=NC(CC(=O)NCCOCCn1cc(COCC3CN(Cc4ccccn4)C(=O)C4CCCC3N4S(=O)(=O)c3cc(Cl)cc(Cl)c3)nn1)c1nnc(C)n1-2 (stereo not drawn) [a1d] was tested, and the “α BRD3BD1” value (BRD3BD1) was 7.4, the Kd (BRD3BD1; 15 µM FKBP12, read-out: Binding to BRD3BD1 + FKBP12 Kd) was 0.023 ± 0.005 µM and the Kd (BRD3BD1; absence of FKBP12, read-out: Binding to BRD3BD1 - FKBP12 Kd) was 0.17 ± 0.027 µM. For the same compound, the “α BRD2BD1” value (BRD2BD1) was 7.2, the Kd (BRD2BD1; 15 µM FKBP12, read-out: Binding to BRD2BD1 + FKBP12 Kd) was 0.036 ± 0.009 µM and the Kd (BRD2BD1; absence of FKBP12, read-out: Binding to BRD2BD1 - FKBP12 Kd) was 0.26 ± 0.06 µM. It also gave a Kd (FKBP12 [1]) of 0.001 µM, a Kd (BRD4^BD2; 15 µM FKBP51FK1, read-out: Binding to BRD4BD2 + FKBP51FK1 Kd) of 0.47 ± 0.08 µM and a Kd (BRD4^BD2; absence of FKBP12, 2 nM JQ1-FL tracer, read-out: Binding to BRD4^BD2 - FKBP12 Kd) of 0.32 ± 0.05 µM. For the same compound, the Kd (BRD4^BD2; absence of FKBP51FK1 (SI Table 3), read-out: Binding to BRD4BD2 - FKBP51FK1 Kd) was 0.18 ± 0.03 µM, the Kd (BRD4^BD2; presence of 15 µM FKBP12, read-out: Binding to BRD4^BD2 + FKBP12 Kd (converted)) was 0.07 µM and the “α BRD4^BD2 (binding cooperativity factor)” value (BRD4^BD2; [9]) was 4.5. For the same compound, the “α BRD3BD2” value (BRD3BD2) was 1.0, the Kd (BRD3BD2; 15 µM FKBP12, read-out: Binding to BRD3BD2 + FKBP12 Kd) was 0.14 ± 0.03 µM and the Kd (BRD3BD2; absence of FKBP12, read-out: Binding to BRD3BD2 - FKBP12 Kd) was 0.15 ± 0.03 µM. The Kd (BRD4 43-463 Y390A [2]; Binding to BRD4 43-463 Y390A + FKBP12 Kd, 15 µM FKBP12) was 0.018 ± 0.002 µM, the Kd (BRD4 43-463 Y390A [2]; absence of FKBP12) was 0.183 ± 0.013 µM and the “α BRD4 43-463 Y390A” value (BRD4 43-463 Y390A [3]) was 10. For the same compound, the “α BRD2BD2” value (BRD2BD2) was 2.5, the Kd (BRD2BD2; 15 µM FKBP12, read-out: Binding to BRD2BD2 + FKBP12 Kd) was 0.075 ± 0.02 µM and the Kd (BRD2BD2; absence of FKBP12, read-out: Binding to BRD2BD2 - FKBP12 Kd) was 0.19 ± 0.05 µM. The Kd [4] was 0.009 ± 0.003 µM, the Kd [5] was 0.026 ± 0.006 µM and the Kd (BRD4^BD1; 15 µM FKBP51FK1, read-out: Binding to BRD4BD1 + FKBP51FK1 Kd) was 0.5 ± 0.09 µM. The Kd (BRD4^BD1; absence of FKBP12, 2 nM JQ1-FL tracer, read-out: Binding to BRD4^BD1 - FKBP12 Kd) was 0.45 ± 0.07 µM, the Kd (BRD4^BD1; absence of FKBP51FK1 (SI Table 3), read-out: Binding to BRD4BD1 - FKBP51FK1 Kd) was 0.3 ± 0.05 µM and the Kd (BRD4^BD1; presence of 15 µM FKBP12, read-out: Binding to BRD4^BD1 + FKBP12 Kd (converted)) was 0.025 µM. For the same compound, the “α BRD4^BD1 (binding cooperativity factor)” value (BRD4^BD1; [9]) was 18, the Kd (BRD4^BD1; values quoted in rebuttal letter (earlier version of Tab. 1), read-out: binding to BRD4BD1 + FKBP12) was 0.026 µM and the IC50 (MV4-11 cells) was 0.0017 µM. For the same compound, the IC50 (BRD4) was 0.82 µM, the IC50 (FKBP12 [6]) was 0.014 µM and the “α BRD4 43-463 Y97A” value (BRD4 43-463 Y97A [7]) was 2.2. For the same compound, the Kd (BRD4 43-463 Y97A [8]; Binding to BRD4 43-463 Y97A + FKBP12 Kd, 15 µM FKBP12) was 0.059 ± 0.005 µM, the Kd (BRD4 43-463 Y97A [8]; Binding to BRD4 43-463 Y97A - FKBP12 Kd, absence of FKBP12) was 0.13 ± 0.016 µM and the “α BRD4 43-463” value (BRD4 43-463) was 6.7. The Kd (BRD4 43-463; Binding to BRD4 43-463 + FKBP12 Kd, 15 µM FKBP12) was 0.026 ± 0.003 µM and the Kd (BRD4 43-463; Binding to BRD4 43-463 - FKBP12 Kd, absence of FKBP12) was 0.175 ± 0.017 µM.
In the case of Cc1sc2c(c1C)C(c1ccc(Cl)cc1)=N[C@@H](CC(=O)OC(C)(C)C)c1nnc(C)n1-2 [JQ1, (+)-JQ1, reference compound], the “α BRD3BD1” value (BRD3BD1) is reported as 1.0, the “α BRD2BD1” value (BRD2BD1) is reported as 1.0 and the “α BRD3BD2” value (BRD3BD2) is reported as 1.0. For the same compound, the “α BRD4 43-463 Y390A” value (BRD4 43-463 Y390A [3]) was 1.0, the “α BRD2BD2” value (BRD2BD2) was 1.0 and the “α BRD4 43-463 Y97A” value (BRD4 43-463 Y97A [7]) was 1.2.
CCCCCCCC/C=C\CCCCCCCC(=O)ON1C(=O)CC(S(=O)(=O)O)C1=O (stereo not drawn) [sulfosuccinimidyl oleate (SSO), sulfosuccinimidyl oleate, reference compound] was tested, and the “effect of CD36 inhibitor on myc repression upon a1dj treatment” value (MYC mRNA) was “did not observe any effect”.

— paper PMC13586308, “Cell type–selective targeting by heterobifunctional protein binders via in-cell enrichment” (Nature Communications, 2026)
